Drawing on ChEMBL document CHEMBL6092168, “Identification of novel indolinone derivatives as CTSC inhibitors to treat inflammatory bowel disease by modulating inflammatory factors” (Eur J Med Chem, 2024), this text covers Activity, IC50 and inhibition for 2 compounds.

One may read the IC50 as the point on the concentration scale where inhibition reaches its midpoint. The term inhibition denotes the change of the read-out against control, counted positive when it falls.

Calls of active or inactive are those of the source. The calls are words filed in the database; no cut-off is given here.

For experiment [1], the system named is Mus musculus. The experiment in a line: Anti-inflammatory activity in DSS-induced ulcerative colitis male C57BL/6 mouse model assessed as reduction in Cathepsin G level in colon at 60 mg/kg administered via gavage for 10 days relative to control. The format is functional. As to conditions: time 10.0 day.
Experiment [2] has as its system Mus musculus. The experiment in a line: Anti-inflammatory activity in DSS-induced ulcerative colitis male C57BL/6 mouse model assessed as reduction in Cathepsin C level in colon at 60 mg/kg administered via gavage for 10 days. It counts as functional. The conditions noted are these: time 10.0 day.
The test system of experiment [3] is Mus musculus. The experiment in a line: Anti-inflammatory activity in DSS-induced ulcerative colitis male C57BL/6 mouse model assessed as reduction in proteinase 3 level in colon at 60 mg/kg administered via gavage for 10 days relative to control. The format is functional. The conditions noted are these: time 10.0 day.
Experiment [4] deals with Mus musculus. The experiment in a line: Anti-inflammatory activity in DSS-induced ulcerative colitis male C57BL/6 mouse model assessed as reduction in neutrophil elastase level in serum at 60 mg/kg administered via gavage for 10 days relative to control. It counts as functional. The conditions noted are these: time 10.0 day.
Experiment [5] has as its system Mus musculus. The experiment in a line: Anti-inflammatory activity in DSS-induced ulcerative colitis male C57BL/6 mouse model assessed as reduction in Cathepsin C level in serum at 60 mg/kg administered via gavage for 10 days relative to control. It counts as functional. The conditions noted are these: time 10.0 day.
Experiment [6] relates to Mus musculus. The experiment in a line: Anti-inflammatory activity in DSS-induced ulcerative colitis male C57BL/6 mouse model assessed as reduction in Cathepsin G level in serum at 60 mg/kg administered via gavage for 10 days relative to control. It counts as functional. The conditions noted are these: time 10.0 day.
Experiment [7] has as its system Mus musculus. The experiment in a line: Anti-inflammatory activity in DSS-induced ulcerative colitis male C57BL/6 mouse model assessed as reduction in neutrophil elastase level in colon at 60 mg/kg administered via gavage for 10 days relative to control. The format is functional. The conditions noted are these: time 10.0 day.
For experiment [8], the system named is RAW264.7. The experiment in a line: Anti-inflammatory activity in mouse RAW264.7 cells assessed as inhibition of LPS-induced NO production preincubated for 1 hr followed by LPS addition and measured after 24 hrs by Griess reagent based assay. The format is functional, cell-based.
In experiment [9] the test system is RAW264.7. The experiment is described as follows: Anti-inflammatory activity in mouse RAW264.7 cells assessed as inhibition of LPS-induced TNF-alpha production at 5 uM preincubated for 1 hr followed by LPS addition and measured after 24 hrs by ELISA relative to control. The format is functional. The arrangement: scale not given: the % may be the effect or the level left. The conditions noted are these: time 25 hrs. A general note: In an ELISA, binding on a coated surface is turned into a signal by an enzyme label.

Experiment [10] relates to RAW264.7. The experiment in a line: Anti-inflammatory activity in mouse RAW264.7 cells assessed as inhibition of LPS-induced IL-1beta production at 5 uM preincubated for 1 hr followed by LPS addition and measured after 24 hrs by ELISA relative to control. The format is functional. Further details: scale not given: the % may be the effect or the level left. The conditions noted are these: time 25 hrs.

Experiment [11] concerns the target T1, Myeloblastin (Homo sapiens) (UniProt P24158).
T1 sequence (whole entry): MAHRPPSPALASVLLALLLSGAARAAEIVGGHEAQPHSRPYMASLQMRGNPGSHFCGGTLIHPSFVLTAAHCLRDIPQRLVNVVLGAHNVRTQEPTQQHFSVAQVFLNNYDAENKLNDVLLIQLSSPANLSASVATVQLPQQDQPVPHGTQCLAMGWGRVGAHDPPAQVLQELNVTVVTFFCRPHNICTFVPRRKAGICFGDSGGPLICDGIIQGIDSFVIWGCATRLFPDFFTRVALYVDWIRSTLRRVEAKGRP
The experiment in a line: Inhibition of proteinase 3 in human U-937 cells using aminobenzoyl-Val-Ala-Asp-Cys-Ala-Asp-Gln-ethylenediamine 2,4-dinitrophenyl as substrate at 10 uM incubated for 5 days by fluorescence based microplate reader analysis relative to control. It counts as cell-based. As to conditions: time 5.0 day.

The target in experiment [12] is T2, Neutrophil elastase (Homo sapiens) (UniProt P08246).
T2 sequence (whole entry): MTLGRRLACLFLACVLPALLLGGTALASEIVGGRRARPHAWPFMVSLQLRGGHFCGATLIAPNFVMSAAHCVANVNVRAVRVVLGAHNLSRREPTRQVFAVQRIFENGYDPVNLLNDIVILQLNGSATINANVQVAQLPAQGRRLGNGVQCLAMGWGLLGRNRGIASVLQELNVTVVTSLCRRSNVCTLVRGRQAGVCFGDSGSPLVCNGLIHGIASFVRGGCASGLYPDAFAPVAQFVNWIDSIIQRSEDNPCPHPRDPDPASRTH
The experiment is described as follows: Inhibition of neutrophil elastase in human U-937 cells using N-MeSuc-Ala-Pro-Val-pNA as substrate at 10 uM incubated for 5 days by […] based microplate reader analysis relative to control. It counts as cell-based. The conditions noted are these: time 5.0 day.

Experiment [13] addresses T3, Cathepsin G (Homo sapiens) (UniProt P08311).
T3 sequence (whole entry): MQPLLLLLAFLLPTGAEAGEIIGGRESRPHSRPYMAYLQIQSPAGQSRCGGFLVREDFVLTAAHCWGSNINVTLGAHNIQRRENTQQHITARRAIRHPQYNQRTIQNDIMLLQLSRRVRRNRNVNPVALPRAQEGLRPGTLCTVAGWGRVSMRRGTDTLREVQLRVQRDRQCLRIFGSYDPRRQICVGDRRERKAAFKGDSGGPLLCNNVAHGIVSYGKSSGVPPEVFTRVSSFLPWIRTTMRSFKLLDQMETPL
The experiment in a line: Inhibition of Cathepsin G in human U-937 cells using N-Suc-Ala-Ala-Pro-Phe-pNA as substrate at 10 uM incubated for 5 days by […] based microplate reader analysis relative to control. The conditions noted are these: time 5.0 day. It counts as cell-based.

The target in experiment [14] is Dipeptidyl peptidase 1 (Homo sapiens, UniProt P53634). The experiment in a line: Inhibition of Cathepsin C in human U-937 cells using H-Gly-Arg-AMC as substrate at 10 uM incubated for 5 days by fluorescence based microplate reader analysis relative to control. The format is cell-based. The conditions noted are these: time 5.0 day.
Experiment [15] concerns Mus musculus. The experiment in a line: Anti-inflammatory activity in DSS-induced ulcerative colitis C57BL/6 mouse model assessed as effect on neutrophil serine proteases level at 60 mg/kg, administered twice daily. It counts as functional, organism-based.
For experiment [16], the system named is Mus musculus. The experiment in a line: Anti-inflammatory activity in DSS-induced ulcerative colitis C57BL/6 mouse model assessed as effect on Cathepsin C activity at 60 mg/kg, administered twice daily. The format is functional, organism-based.

Sequence of Dipeptidyl peptidase 1 (P53634 25-134 limits assumed): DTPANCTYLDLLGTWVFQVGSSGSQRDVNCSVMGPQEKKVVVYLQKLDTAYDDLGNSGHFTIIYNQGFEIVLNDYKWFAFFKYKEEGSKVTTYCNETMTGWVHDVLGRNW
Sequence of Dipeptidyl peptidase 1 (P53634 231-394 limits assumed): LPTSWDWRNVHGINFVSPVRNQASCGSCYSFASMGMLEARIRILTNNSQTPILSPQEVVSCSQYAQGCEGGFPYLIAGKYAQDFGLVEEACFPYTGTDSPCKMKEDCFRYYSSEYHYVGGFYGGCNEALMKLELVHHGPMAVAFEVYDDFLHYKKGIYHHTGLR
Sequence of Dipeptidyl peptidase 1 (P53634 395-463 limits assumed): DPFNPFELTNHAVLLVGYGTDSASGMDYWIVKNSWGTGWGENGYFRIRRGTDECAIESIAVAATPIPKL

For `Nc1ccc(O)c(C(=O)O)c1`, the result in experiment [1], in experiment [2], in experiment [3], in experiment [4], in [5] and in experiment [6] was Active. Further, in experiment [7], the result was Active.
On to `Cn1c(=O)oc2ccc(-c3ccc(C[C@@H](C#N)NC(=O)[C@@H]4CNCCCO4)cc3)cc21` [BRENSOCATIB], for which the IC50 in experiment [8] turned out to be 6.7 µM. Besides, the Activity in experiment [9] stood at 65.1%; in experiment [10] it was 70.9%. The inhibition in experiment [11] was 16.7%; in experiment [12] it was 8.29%; in experiment [13] it was 12.1%; in [14], 10.1%. Further, the result in experiment [15] and in [16] was Active.
